Data published in patent publication US8067602B2, “Asymmetric cyanine fluorescent dyes, compositions and their use in staining biological samples” (Shenzhen Mindray Bio-Medical Electronics Co., Ltd., priority 2008, dated 2011).

Experiments:
[1] = Fluorescence quantum yield in ethanol; type: physicochemical; settings: room temperature, triplicate, Rhodamine B as standard
Method: Each of the dyes were detected in triplicate at room temperature. Fluorescence quantum yields were calculated and averaged. With Rhodamine B as the standard (φF=0.97, ethanol), the fluorescence quantum yield for the known compound M in the ethanol solution was calculated to be φF=1.099×10^−2; for Dye-1, φF=1.590×10^−2; for Dye-2, φF=1.248×10^−2; and for Dye-3, φF=1.181×10^−2. The instrument used was UV-Vis spectrophotometer Model Lambda 35, and fluorescence spectrophotometer Model FL-4500.

salmon sperm DNA = assay: Fluorescence intensity of dye in PBS with salmon sperm DNA (excitation 633 nm); type: binding; settings: for fluorescence of the dye per se in PBS without nucleic acid: PBS without DNA/RNA; for Relative fluorescence intensity after binding DNA / Relative fluorescence intensity before binding DNA: in PBS; for Relative fluorescence intensity after binding DNA: bound with salmon sperm DNA; for Relative fluorescence intensity before binding DNA: no DNA; for Ratio of increase in fluorescence (after vs before binding): salmon sperm DNA in PBS
Method: An amount of Dye-1 was accurately weighed and sufficiently dissolved in 2.5 mL methanol/ethylene glycol (50:50 vol/vol) to prepare a dye solution at a concentration of 5 mM. This solution was filtered before use. Separate amounts of salmon sperm DNA were weighed and dissolved in PBS to obtain PBS buffers containing 3 mg/mL, 1 mg/mL, 0.3 mg/mL, 0.1 mg/mL of DNA. 2-μL aliquots of the prepared 5 mM dye solution were accurately measured and respectively combined in 1 mL PBS with 1 μL of the PBS buffers containing different concentrations of DNA. After reacting for a period of time, the complexes were detected for their emission spectra at the selected excitation wavelength of 633 nm. The detection temperature was at room temperature. The instrument used was fluorescence spectrophotometer Model FL-4500.
FIG. 2 is a comparison of the relative fluorescence strength of Dye-1 in PBS before and after it is bound with DNA.
(§1) The detection procedures followed were those described in Example 10 and Example 11. The fluorescence spectra for the complexes of Dye-2 with different concentrations of DNA or RNA are shown in FIG. 5 and FIG. 6, respectively. The comparisons of fluorescence for Dye-2 before and after it is bound with DNA or with RNA in PBS are shown in FIG. 7 and FIG. 8, respectively.
(§2) The detection procedures followed were those described in Example 10 and Example 11. The comparisons of fluorescence for Dye-3 before and after it bound with DNA or with RNA in PBS are shown in FIG. 9 and FIG. 10, respectively.
Table 1 compares the ratios of increase in fluorescence for Dye-1, Dye-2 and Dye-3 after vs before they bound with salmon sperm DNA in PBS.

[2] = system: soft-shelled turtle (Trionyx sinensis) liver RNA; assay: Fluorescence intensity of dye in PBS with soft-shelled turtle liver RNA (excitation 633 nm); type: binding; settings: for ability to bind to nucleic acids versus Dye-0: concluded from FIG. 11; for increase in fluorescence intensity after binding RNA, comparison of dyes: identical concentrations, FIG. 11; for Relative fluorescence intensity after binding RNA / Relative fluorescence intensity before binding RNA: in PBS; for Relative fluorescence intensity after binding RNA: bound with turtle liver RNA; for Relative fluorescence intensity before binding RNA: no RNA; for Ratio of increase in fluorescence (after vs before binding): turtle liver RNA in PBS
Method: An amount of Dye-1 was accurately weighed and sufficiently dissolved in 2.5 mL methanol/ethylene glycol (50:50 vol/vol) to prepare a dye solution at a concentration of 5 mM. This solution was filtered before use. Separate amounts of soft-shelled turtle (Trionyx sinensis) liver RNA were weighed and dissolved in PBS to obtain PBS buffers containing 30 μg/mL, 10 μg/mL, 3 μg/mL, 1 μg/mL of RNA. 2-μL aliquots of the prepared 5 mM dye solution were accurately measured and respectively combined in 1 mL PBS with 1 μL of the PBS buffers containing different concentrations of RNA. After reacting for a period of time, the complexes were detected for their emission spectra at the selected excitation wavelength of 633 nm. The detection temperature was at room temperature. The instrument used was fluorescence spectrophotometer Model FL-4500.
FIG. 4 is a comparison of the relative fluorescence strength of Dye-1 in PBS before and after it is bound with RNA. As can likewise be seen in the figure, when Dye-1 formed complexes with RNA, there occurred a rapid increase in fluorescence intensity accompanied by a certain degree of red shift of fluorescence, with the maximum […] peak at about 655 nm in the near-infrared region, which can avoid the interference from the background fluorescence of the organisms per se and therefore improve the accuracy of detection.
as §1, §2
Table 2 compares the ratios of increase in fluorescence for Dye-1, Dye-2 and Dye-3 after vs before they bound with soft-shelled turtle (Trionyx sinensis) liver RNA in PBS.
The detection procedure followed was that described in Example 10. The fluorescence spectra for Dye-1, Dye-2 and Dye-0 after they bound in identical concentrations with soft-shelled turtle (Trionyx sinensis) liver RNA are shown in FIG. 11.

[3] = ethanol; cited from earlier work

Structure (SMILES) | fluorescence quantum yield φF [1] | change of fluorescence emission strength of dye/DNA complexes with DNA concentration (salmon sperm DNA; DNA buffers 0.1-3 mg/mL, FIG. 1) | fluorescence of the dye per se in PBS without nucleic acid (salmon sperm DNA) | Relative fluorescence intensity after binding DNA (salmon sperm DNA) | Relative fluorescence intensity before binding DNA (salmon sperm DNA) | Ratio of increase in fluorescence (after vs before binding) (salmon sperm DNA) | change of fluorescence emission strength of dye/RNA complexes with RNA concentration ([2]; RNA buffers 1-30 μg/mL, FIG. 3) | ability to bind to nucleic acids versus Dye-0 [2] | increase in fluorescence intensity after binding RNA, comparison of dyes [2] | Relative fluorescence intensity after binding RNA [2] | Relative fluorescence intensity before binding RNA [2] | Ratio of increase in fluorescence (after vs before binding) [2] | fluorescence quantum yield φF of the standard [3]
CCN1C=C/C(=C\C=C\c2sc3ccccc3[n+]2CC)c2ccccc21.[I-] [Dye-0, reference compound] | 1.099×10^−2 | – | – | – | – | – | – | – | – | – | – | – | –
CCOC(=O)CCCCC[n+]1c(/C=C/C=C2\C=CN(Cc3ccccc3)c3ccccc32)sc2ccccc21.[Br-] [Dye-1] | 1.590×10^−2 | increased rapidly with the increase in DNA concentration | scarcely generated any fluorescence | 68.63 | 1.82 | 38 | increased rapidly with the increase in RNA concentration | superior to Dye-0 | largest magnitude of increase in fluorescence intensity | 83.24 | 1.82 | 46 | –
CCOC(=O)CCCN1C=C/C(=C\C=C\c2sc3ccccc3[n+]2CCO)c2ccccc21.[Br-] [Dye-2] | 1.248×10^−2 | – | scarcely generated any fluorescence | 102.93 | 0.97 | 106 | – | superior to Dye-0 | marked increase in fluorescence intensity | 37.28 | 0.97 | 38 | –
OCCN1C=C/C(=C\C=C\c2sc3ccccc3[n+]2CCOc2ccccc2)c2ccccc21.[Br-] [Dye-3] | 1.181×10^−2 | – | weak fluorescence | 94.37 | 1.64 | 55 | – | – | – | 33.57 | 1.64 | 20 | –
CCN(CC)c1ccc2c(-c3ccccc3C(=O)O)c3ccc(=[N+](CC)CC)cc-3oc2c1.[Cl-] [Rhodamine B] | – | – | – | – | – | – | – | – | – | – | – | – | 0.97
